Data set [1] has as its target T1, Transient receptor potential cation channel subfamily V member 1 (Homo sapiens, UniProt Q8NER1). Kind of data set: Agonist activity at recombinant human TRPV1 transfected in HEK293 cells assessed as increase in intracellular Ca2+ influx by Fluo-4 NW Ca2+ dye based microfluorometric calcium flux assay.
The target of data set [2] is T2, Cannabinoid receptor 2 (Homo sapiens, UniProt P34972). Kind of data set: Agonist activity at recombinant human CB2 receptor expressed in HEK293-CNG cells assessed as reduction in forskolin-induced cAMP accumulation incubated for 60 mins by fluorescence based analysis. The data set is classed as functional, cell-based. For orientation: cAMP levels reflect the balance of adenylyl cyclase and phosphodiesterase activity.

Data set [3] in a line: Metabolic stability in human plasma assessed as parent compound remaining at 50 uM incubated for 60 mins.
A short description of data set [4]: Metabolic stability in human liver S9 fraction assessed as parent compound remaining at 5 uM incubated for 60 mins.
Data set [5] is described as follows: Metabolic stability in human skin S9 fraction assessed as parent compound remaining at 5 uM incubated for 60 mins.
Data set [6] in a line: Metabolic stability in human HaCaT cells assessed as parent compound remaining at 5 uM incubated for 120 mins.
A short description of data set [7]: Metabolic stability in human Keratinocytes assessed as parent compound remaining at 5 uM incubated for 120 mins.
Data set [8] can be described thus: Metabolic stability in human Fibroblast assessed as parent compound remaining at 5 uM incubated for 120 mins. Particulars: fibroblasts.
Data set [9] deals with T1, Transient receptor potential cation channel subfamily V member 1. The experiment in a line: Agonist activity at human TRPV1 expressed in HEK293 cells assessed as induction of current by patch clamp assay. On the technique in general: Patch clamp records ionic current or voltage across a cell membrane.
In the next data set the target is Cannabinoid receptor 1 (Homo sapiens, UniProt P21554). Kind of data set: Agonist activity at recombinant human CB1 receptor expressed in HEK293-CNG cells assessed as reduction in forskolin-induced cAMP accumulation incubated for 60 mins by fluorescence based analysis. The data set is classed as functional, cell-based.
For data set [10], the target named is T1, Transient receptor potential cation channel subfamily V member 1.
Data set [11] addresses T2, Cannabinoid receptor 2. Kind of data set: Antagonist activity at recombinant human CB2 receptor expressed in HEK293-CNG cells assessed as cAMP accumulation incubated for 60 mins in presence of forskolin by fluorescence based analysis. Format: functional, cell-based.

As a reminder, the pEC50 is −log10 of the EC50, conventionally taken in molar units. One may read the share remaining as the share of the starting amount still present when the sample was taken. By pIC50 is commonly meant the IC50 on a negative log10 scale, so that one unit is a factor of ten.

pEC50, pIC50: −log10 of the molar value. Some results are limits rather than exact numbers.

T2 sequence (P34972 whole entry): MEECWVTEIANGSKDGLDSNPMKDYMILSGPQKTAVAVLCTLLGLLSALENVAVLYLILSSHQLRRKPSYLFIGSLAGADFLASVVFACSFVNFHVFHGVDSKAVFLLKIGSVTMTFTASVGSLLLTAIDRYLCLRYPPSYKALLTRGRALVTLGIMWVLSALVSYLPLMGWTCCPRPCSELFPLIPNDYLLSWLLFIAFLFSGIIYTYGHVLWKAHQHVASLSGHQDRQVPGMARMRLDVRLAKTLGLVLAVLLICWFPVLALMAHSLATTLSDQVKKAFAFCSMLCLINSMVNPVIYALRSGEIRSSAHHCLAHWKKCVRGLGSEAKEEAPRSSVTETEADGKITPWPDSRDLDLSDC
Sequence of Cannabinoid receptor 1 (P21554 whole entry): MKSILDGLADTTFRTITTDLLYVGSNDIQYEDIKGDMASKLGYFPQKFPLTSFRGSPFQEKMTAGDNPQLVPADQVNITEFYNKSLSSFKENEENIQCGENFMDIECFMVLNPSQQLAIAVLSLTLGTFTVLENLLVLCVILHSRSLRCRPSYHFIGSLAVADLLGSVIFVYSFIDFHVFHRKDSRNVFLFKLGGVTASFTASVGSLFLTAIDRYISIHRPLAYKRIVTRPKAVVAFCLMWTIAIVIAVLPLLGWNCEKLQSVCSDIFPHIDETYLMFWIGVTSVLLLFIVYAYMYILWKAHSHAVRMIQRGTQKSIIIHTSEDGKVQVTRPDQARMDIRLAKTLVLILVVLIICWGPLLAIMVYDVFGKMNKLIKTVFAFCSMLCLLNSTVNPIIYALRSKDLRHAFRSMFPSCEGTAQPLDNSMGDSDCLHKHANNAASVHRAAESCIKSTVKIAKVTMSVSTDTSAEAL
T1 sequence (Q8NER1 whole entry): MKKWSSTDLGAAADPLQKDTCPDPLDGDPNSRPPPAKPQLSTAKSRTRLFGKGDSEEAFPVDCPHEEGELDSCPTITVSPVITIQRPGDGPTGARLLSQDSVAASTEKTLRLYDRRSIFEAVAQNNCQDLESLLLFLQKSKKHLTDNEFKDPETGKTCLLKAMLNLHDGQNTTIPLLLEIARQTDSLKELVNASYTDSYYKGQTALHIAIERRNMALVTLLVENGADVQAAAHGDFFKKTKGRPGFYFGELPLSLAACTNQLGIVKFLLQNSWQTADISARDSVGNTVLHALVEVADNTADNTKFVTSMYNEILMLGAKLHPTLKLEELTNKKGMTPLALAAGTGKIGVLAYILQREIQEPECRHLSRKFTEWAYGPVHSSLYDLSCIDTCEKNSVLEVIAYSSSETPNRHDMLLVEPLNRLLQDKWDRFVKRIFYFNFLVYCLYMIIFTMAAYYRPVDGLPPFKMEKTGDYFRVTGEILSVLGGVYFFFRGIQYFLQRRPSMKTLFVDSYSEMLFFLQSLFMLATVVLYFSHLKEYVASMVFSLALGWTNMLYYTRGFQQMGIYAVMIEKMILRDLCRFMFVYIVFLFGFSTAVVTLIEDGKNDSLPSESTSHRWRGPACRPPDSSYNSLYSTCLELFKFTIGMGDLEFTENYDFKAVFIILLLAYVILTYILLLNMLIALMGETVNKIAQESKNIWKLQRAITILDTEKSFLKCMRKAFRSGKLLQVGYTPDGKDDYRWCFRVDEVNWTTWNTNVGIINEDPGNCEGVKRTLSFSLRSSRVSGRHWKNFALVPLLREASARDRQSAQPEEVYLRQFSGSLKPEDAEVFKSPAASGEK

On to `CCCCCC[C@H](C/C=C\CCCCCCCC(=O)OCC(=O)NCCc1ccc(O)c(O)c1)OC(=O)Cc1ccccc1`, for which the pEC50 in [1] is 5.51.

As for `CC(C)=CCC/C(C)=C/C(=O)OCC(=O)NCCO`, the pEC50 was 4.57 in [1], 4.42 on Cannabinoid receptor 2 [2] and 4.32 in [9]. The amount remaining at 1 h, 50 µM in [3] was 89%. In addition, the fraction remaining at 1 h, 5 µM was 89% in data set [4] and 96% in data set [5]. The figures for the fraction remaining at 2 h, 5 µM in data set [6], in data set [7] and in [8] were 98%, 96% and 93%, respectively.

As to `CC(C)=CCC/C(C)=C/C(=O)OCC(=O)NCCc1ccc(O)c(O)c1`, the pEC50 is 3.93 at Cannabinoid receptor 1 and 4.05 on Cannabinoid receptor 2 [2].

Regarding `CCCCC/C=C\C/C=C\C/C=C\C/C=C\CCCC(=O)OCC(=O)NC1CC1`, the pEC50 on Cannabinoid receptor 1 was 4.86.

`CC(C)=CCC/C(C)=C/C(=O)OCC(=O)NC1CC1`: the pEC50 in data set [1] is 4.48.

Consider `CCCCCC[C@H](C/C=C\CCCCCCCC(=O)OCC(=O)NCCc1cc(O)c(O)cc1I)OC(=O)Cc1ccccc1`, for which the pIC50 in [10] is < 4.00.

For `CCCCCCCC(=O)OCC(=O)NCCc1ccc(O)c(O)c1`, the pEC50 in data set [1] is 4.97; at Cannabinoid receptor 1, 4.86.

Consider `O=C(CO)NCCc1ccc(O)c(O)c1`, for which the pEC50 at Cannabinoid receptor 1 and on Cannabinoid receptor 2 [2] was < 4.00 each time.

On to `C=CCNC(=O)COC(=O)CCCCCCCCCCC`, for which the negative logarithm of the EC50 (pEC50) in [1] was 4.94.

`CCCCC/C=C\C/C=C\C/C=C\C/C=C\CCCC(=O)OCC(=O)NCCc1ccc(O)c(O)c1`: in [1], the pEC50 is 6.00.

For `CCCCCCCC(=O)OCC(=O)NCCc1cc(O)c(O)cc1I`, on Cannabinoid receptor 2 [2], the pEC50 is < 4.00. Further, in data set [3], the fraction remaining at 1 h, 50 µM amounted to 13%. The results for the share remaining at 1 h, 5 µM in data set [4] and in [5] were 1% and 27%, respectively. The amount remaining at 2 h, 5 µM worked out at 73% in [6], 85% in data set [7] and 69% in [8]. The same compound had a negative logarithm of the IC50 (pIC50) in data set [10] of 4.27.

Regarding `O=C(CO)NC1CC1`, the pEC50 (in [1]; on Cannabinoid receptor 1; on Cannabinoid receptor 2 [2]) was < 4.00 in each case.

Regarding `CCCCCC[C@H](C/C=C\CCCCCCCC(=O)OCC(=O)NCCO)OC(=O)Cc1ccccc1`, the pEC50 in [1] is 5.43.

On to `CCCCCC[C@H](C/C=C\CCCCCCCC(=O)OCC(=O)NC1CC1)OC(=O)Cc1ccccc1`, for which the pEC50 in data set [1] is 5.59.

As to `O=C(CO)NCCc1cc(O)c(O)cc1I`, the pEC50 at Cannabinoid receptor 1 and on Cannabinoid receptor 2 [2] was < 4.00 throughout. Moreover, in data set [10], the pIC50 was < 4.00.

Regarding `CCCCC/C=C\C/C=C\C/C=C\C/C=C\CCCC(=O)OCC(=O)NCCO`, the pEC50 in data set [1] was 5.68; at Cannabinoid receptor 1 it was 4.51. In data set [3], the share remaining at 1 h, 50 µM is > 99%. The amount remaining at 1 h, 5 µM in data set [4] was 24%; in [5] it was 76%. Also, the figures for the share remaining at 2 h, 5 µM in [6], in [7] and in data set [8] were > 99%, 97% and 73%, respectively.

Consider `C=CCNC(=O)COC(=O)CCC/C=C\C/C=C\C/C=C\C/C=C\CCCCC`, for which the pEC50 was 4.66 in [1], 4.78 at Cannabinoid receptor 1 and 4.21 on Cannabinoid receptor 2 [2].

Take `CC(C)=CCC/C(C)=C/CC/C(C)=C/CC/C=C(\C)CC/C=C(\C)CCC(=O)OCC(=O)NC1CC1`: the values for the pEC50 (in data set [1]; on Cannabinoid receptor 1) were 4.87 and 3.71, respectively.

`C=CCNC(=O)COC(=O)CCCCCCC`: in [1], the negative logarithm of the EC50 (pEC50) was 4.63.

`O=C(CO)NCCO`: the negative-log EC50 (pEC50) (in data set [1]; at Cannabinoid receptor 1; at Cannabinoid receptor 2 [2]) was < 4.00 in each case.

`C=CCNC(=O)CO`: the pEC50 (in [1]; at Cannabinoid receptor 1; on Cannabinoid receptor 2 [2]) was < 4.00 each time.

For the compound `C=CCNC(=O)COC(=O)CC/C(C)=C/CC/C(C)=C/CC/C=C(\C)CC/C=C(\C)CCC=C(C)C`, the pEC50 in [1] is 4.44.

On to `COc1ccc(C(=O)c2c(C)n(CCN3CCOCC3)c3cc(I)ccc23)cc1`, for which the pIC50 at Cannabinoid receptor 2 [11] was 7.52.

Turning to `CC(C)=CCC/C(C)=C/C(=O)OCC(=O)NCCc1cc(O)c(O)cc1I`, the pEC50 at Cannabinoid receptor 1 was 4.38; at Cannabinoid receptor 2 [2] it was 4.43.

With `CCCCCCCC/C=C\CCCCCCCC(=O)OCC(=O)NC1CC1`, the figures for the pEC50 (in data set [1]; on Cannabinoid receptor 1) were 6.15 and 4.55, respectively.

As to `C=CCNC(=O)COC(=O)CCCCCCC/C=C\C[C@@H](CCCCCC)OC(=O)Cc1ccccc1`, the pEC50 in data set [1] is 4.82.

In [10], `CCCCCCCCCCCC(=O)OCC(=O)NCCc1cc(O)c(O)cc1I` had a negative logarithm of the IC50 (pIC50) of 4.19.

Regarding `CCCCCCCCCCCC(=O)OCC(=O)NC1CC1`, the values for the negative-log EC50 (pEC50) (in data set [1]; on Cannabinoid receptor 2 [2]) were 5.77 and 4.06, respectively. Besides, the amount remaining at 1 h, 50 µM in data set [3] is 80%. Further, the fraction remaining at 1 h, 5 µM in data set [4] is 1%; in [5] it was 69%. Further, the values for the fraction remaining at 2 h, 5 µM in data set [6], in data set [7] and in data set [8] were 94%, 99% and 62%, respectively.

Turning to `C=CCNC(=O)COC(=O)CCCCCCC/C=C\CCCCCCCC`, the pEC50 in data set [1] was 5.33.

These data come from ChEMBL document CHEMBL6071163, “The multicomponent Passerini reaction as a means of accessing diversity in structure, activity and properties: Soft and hard vanilloid/cannabinoid modulators” (Eur J Med Chem, 2024).
